Measured values taken from paper PMC5991599, “Anti‐tumor efficacy of a novel CLK inhibitor via targeting RNA splicing and MYC‐dependent vulnerability” (EMBO Molecular Medicine, 2018).
Read-outs that look alike come from different tables or passages of the source.

Tests used:
[1] = test system: MYC-inducible SK-MEL-28 cells; test: Growth inhibition in MYC-inducible SK-MEL-28 cells; format: cell-based; conditions: Homo sapiens, read-out: IC50 (nmol/L) (95% CI)
Experimental: To obtain an MYC‐inducible cell line, SK‐MEL‐28 cells were engineered via stable lentiviral transduction to express an empty pTRIPZ vector (Open Biosystems/GE Healthcare Dharmacon Inc., Lafayette, CO, USA) or a Tet‐inducible promoter‐driven MYC gene. Infected cells were selected with geneticin for 4 days, left to recover for 24 h, and treated with 0.5 μg/ml Dox (Sigma‐Aldrich, St. Louis, MO, USA). U2OS cells were similarly engineered to express an empty pBABE vector (Cell Biolabs, Inc., San Diego, CA, USA) or a MYC‐estrogen receptor (MYC‐ER) transgene via 3 days of puromycin selection followed by treatment with 0.5 μmol/l tamoxifen (Sigma‐Aldrich).
Silencer Select Pre-designed siRNAs purchased from Ambion (Thermo Fisher
Scientific) were used. The siRNA ID# and sequence are shown below: […]
Cell proliferation assay, Caspase-3/7 assay
Cell proliferation was measured using CellTiter-Glo luminescent cell viability
assay (Promega, Fitchburg, WI, U.S.A.). Caspase-3/7 activity was measured using
Caspase-Glo 3/7 Assay Systems (Promega). Luminescence of each well was measured
using ARVO Light (PerkinElmer Inc., Waltham, MA, U.S.A.). The IC50 value and 95%
confidential intervals were estimated using GraphPad Prism 5 (GraphPad Software,
Inc., La Jolla, CA, U.S.A.). […]

HCT116 cells = test: Modulation of the 125 T-025-dependent skipped exons (RNA-Seq, MISO); format: cell-based; conditions: |ΔPSI| > 0.4, T3 AS events from Funnell et al, 2017
Experimental: The RNA‐Seq was performed at Takara Bio Inc. (Shiga, Japan) or Macrogen, Inc. (Seoul, South Korea) by using HiSeq2000 or HiSeq4000 (Illumina Inc., San Diego, CA, USA). Splicing bioinformatics analysis using MISO and pathway analysis using Cytoscape (Shannon et al, 2003) were performed as previously described (Funnell et al, 2017). Briefly, the BAM alignment files produced by TopHat and the files for AS events (for hg19) provided by MISO were used as inputs. […] For clustering, we used 1,320 splicing events with ΔPSI > 0.4, the BF > 20, and SD of PSI for each splicing event > 0.2. Hierarchical clustering was performed using heatmap3 from the R package.

DYRK1A = target: T1, DYRK1A (Homo sapiens, UniProt Q13627); parameters: method as in Funnell et al, 2017; conditions: enzymatic assay; ref Funnell et al, 2017; read-out: IC50 (nmol/L) DYRK1A; cited from earlier work
T1 construct: purchased DiscoverX Corporation (Fremont, CA, USA)

DYRK1B = DYRK1B (Homo sapiens, UniProt Q9Y463); parameters: method as in Funnell et al, 2017; conditions: enzymatic assay; ref Funnell et al, 2017; read-out: IC50 (nmol/L) DYRK1B; cited from earlier work
Sequence of DYRK1B (Q9Y463 whole entry): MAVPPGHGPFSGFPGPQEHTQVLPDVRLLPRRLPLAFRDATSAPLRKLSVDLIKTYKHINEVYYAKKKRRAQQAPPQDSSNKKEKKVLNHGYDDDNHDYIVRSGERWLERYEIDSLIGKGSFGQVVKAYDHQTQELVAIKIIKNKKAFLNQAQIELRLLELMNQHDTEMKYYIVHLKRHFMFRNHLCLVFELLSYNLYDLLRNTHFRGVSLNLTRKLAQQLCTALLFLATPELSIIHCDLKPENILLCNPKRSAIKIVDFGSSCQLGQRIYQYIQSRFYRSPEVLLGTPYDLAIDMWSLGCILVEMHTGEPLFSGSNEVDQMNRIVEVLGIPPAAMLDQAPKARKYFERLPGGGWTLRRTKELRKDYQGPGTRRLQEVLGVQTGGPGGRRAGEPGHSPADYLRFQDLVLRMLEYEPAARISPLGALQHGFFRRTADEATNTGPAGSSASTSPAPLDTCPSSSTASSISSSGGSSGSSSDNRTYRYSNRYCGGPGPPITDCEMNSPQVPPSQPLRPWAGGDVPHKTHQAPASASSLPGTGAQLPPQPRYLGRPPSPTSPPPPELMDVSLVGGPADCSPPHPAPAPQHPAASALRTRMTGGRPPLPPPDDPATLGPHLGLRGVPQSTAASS

CLK1 = CLK1 (Homo sapiens, UniProt P49759); parameters: method as in Funnell et al, 2017; conditions: enzymatic assay; ref Funnell et al, 2017; read-out: IC50 (nmol/L) CLK1; cited from earlier work
Sequence of CLK1 (P49759 whole entry): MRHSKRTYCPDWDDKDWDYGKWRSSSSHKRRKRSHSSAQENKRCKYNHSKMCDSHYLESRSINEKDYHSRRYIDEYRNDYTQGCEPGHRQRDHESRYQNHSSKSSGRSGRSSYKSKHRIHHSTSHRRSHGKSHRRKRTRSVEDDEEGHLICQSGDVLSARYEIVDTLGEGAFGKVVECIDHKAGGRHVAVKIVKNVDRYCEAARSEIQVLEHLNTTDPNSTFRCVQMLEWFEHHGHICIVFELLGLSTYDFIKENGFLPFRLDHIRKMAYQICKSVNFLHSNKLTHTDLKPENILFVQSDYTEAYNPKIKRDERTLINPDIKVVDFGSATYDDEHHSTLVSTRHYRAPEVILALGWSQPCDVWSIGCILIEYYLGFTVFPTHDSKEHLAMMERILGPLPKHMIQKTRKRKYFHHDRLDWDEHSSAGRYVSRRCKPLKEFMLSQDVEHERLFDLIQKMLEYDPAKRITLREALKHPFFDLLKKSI

Q: Which IC50 ([1]; SK-MEL-28, 72 h, myc - Dox) does the source give for CN1CCN(C(=O)C(C)(C)c2ccc(C(=O)Nc3cn4cc(-c5ccncc5)ccc4n3)cc2)CC1 [T3] here?
A: 471 nmol/L

Q: And the IC50 ([1]; SK-MEL-28, 72 h, vector - Dox)?
A: 459 nmol/L

Q: What about the IC50 ([1]; SK-MEL-28, myc + Dox (48 h pretreatment), 72 h) of the same molecule?
A: 294 nmol/L

Q: What about the IC50 ([1]; SK-MEL-28, vector + Dox (48 h pretreatment), 72 h) of the same molecule?
A: 471 nmol/L

Q: And the “share of the 125 T-025-dependent SEs also changed” value (HCT116 cells; T3 at 500 nmol/l)?
A: 58.4%

Q: What about the “share of the 125 T-025-dependent SEs also changed” value (HCT116 cells; T3 at 1,000 nmol/l) of the same molecule?
A: 77.6%

Q: What about the IC50 (DYRK1A) of the same molecule?
A: 230 nmol/L

Q: And the IC50 (DYRK1B)?
A: 260 nmol/L

Q: And the IC50 (CLK1)?
A: 0.63 nmol/L
